Laboratory results published in patent publication US11078202B2, “β-lactamase inhibitor and use thereof” (priority 2018, dated 2021).
Counter-ions that a name gives are not always drawn.

Key:
Assay type in all cases: cell-based
[1] = system: Acinetobacter baumannii XNWB 0007; assay: MIC assay of test compounds combined with ceftazidime (8 μg/mL); conditions: ceftazidime 8 μg/mL fixed
Method: (§1) The bacterial strains used for the minimum inhibitory concentration (MIC) test were frozen in a −80° C. ULT freezer and thawed 2 days before use. A small amount of frozen bacterial strains were scraped using a sterile inoculating loop, streaked onto a TSA solid culture dish for inoculation, and then cultured for 20-24 h at 35±2° C. in a normal atmospheric environment. 5-10 colonies with similar morphology were picked from the culture dish using a sterile inoculating loop and then re-streaked onto a suitable solid culture dish. Then the dish was placed into a normal incubator for culture for 20-24 h at 35±2° C. 5-10 single bacterial colonies were picked from the solid culture dish, resuspended in 500 μL of 0.9% NaCl, and adjusted to an OD600 of 0.1-0.15 with a spectrophotometer. The bacteria were then diluted 300-fold with 1.1×CAMHB. […] Dilution of test compounds: […] 2 μL of each compound in the dilution master plate of the test compounds was transferred to the corresponding well of the assay plates. In the mean time, 2 μL of 100% DMSO was transferred to the compound-free wells (GC and SC wells). (1) 8 μL of imipenem in the additive plate of imipenem was transferred to the corresponding wells of the assay plates; (2) 8 μL of ceftazidime in the additive plate of ceftazidime was transferred to the corresponding wells of the assay plates; (3) 8 μL of ampicillin in the additive plate of ampicillin was transferred to the corresponding wells of the assay plates. 90 μL of corresponding bacterial inocula were added to wells (except for SC wells) of the assay plates. After addition, the 6 assay plates were covered by sterile covers. The mixtures in the assay plates were centrifuged by a centrifuge at 1000 rpm for 30 s, and mixed uniformly by oscillating with a microplate oscillator at 800 rpm for 1 min, and then cultured in a common incubator for 16-20 h at 35±2° C. The minimum inhibitory concentration of each compound was recorded by reference to guidelines from the Clinical and Laboratory Standards Institute. […] The effect of the test compounds in combination with imipenem, ceftazidime, and ampicillin was also tested. […] The bacterial inocula in the assay plates were resuscitated from TSA and diluted in CAMHB, while growth controls (GC wells) and sterile controls (SC wells) were set up in the assay plates. The minimum inhibitory concentration of each compound combination against different bacteria was observed and recorded after the assay plates were incubated in a common incubator at 35±2° C. for 16-20 h, and the results are shown in Tables 1-3.

[2] = system: Klebsiella pneumoniae XNWB 0001; assay: as above; conditions: ceftazidime 8 μg/mL fixed
Method: as §1

[3] = system: Klebsiella pneumoniae XNWB 0002; assay: as above; conditions: ceftazidime 8 μg/mL fixed
Method: as §1

[4] = system: Klebsiella pneumoniae XNWB 0003; assay: as above; conditions: ceftazidime 8 μg/mL fixed
Method: as §1

[5] = system: Klebsiella pneumoniae XNWB 0004; assay: as above; conditions: ceftazidime 8 μg/mL fixed
Method: as §1

[6] = system: Klebsiella pneumoniae XNWB 0005; assay: as above; conditions: ceftazidime 8 μg/mL fixed
Method: as §1

[7] = system: Klebsiella pneumoniae XNWB 0006; assay: as above; conditions: ceftazidime 8 μg/mL fixed
Method: as §1

[8] = system: Pseudomonas aeruginosa XNWB 0008; assay: as above; conditions: ceftazidime 8 μg/mL fixed
Method: as §1

[9] = system: Acinetobacter baumannii XNWB 0007; assay: MIC assay of test compounds combined with imipenem (4 μg/mL); conditions: imipenem 4 μg/mL fixed
Method: as §1

[10] = system: Klebsiella pneumoniae XNWB 0001; assay: as above; conditions: imipenem 4 μg/mL fixed
Method: as §1

[11] = system: Klebsiella pneumoniae XNWB 0002; assay: as above; conditions: imipenem 4 μg/mL fixed
Method: as §1

[12] = system: Klebsiella pneumoniae XNWB 0003; assay: as above; conditions: imipenem 4 μg/mL fixed
Method: as §1

[13] = system: Klebsiella pneumoniae XNWB 0004; assay: as above; conditions: imipenem 4 μg/mL fixed
Method: as §1

[14] = system: Klebsiella pneumoniae XNWB 0005; assay: as above; conditions: imipenem 4 μg/mL fixed
Method: as §1

[15] = system: Klebsiella pneumoniae XNWB 0006; assay: as above; conditions: imipenem 4 μg/mL fixed
Method: as §1

[16] = system: Pseudomonas aeruginosa XNWB 0008; assay: as above; conditions: imipenem 4 μg/mL fixed
Method: as §1

| SMILES | The minimum concentration of test compounds combined with ceftazidime (8 μg/mL) for bacteriostasis [1] | The minimum concentration of test compounds combined with ceftazidime (8 μg/mL) for bacteriostasis [2] | The minimum concentration of test compounds combined with ceftazidime (8 μg/mL) for bacteriostasis [3] | The minimum concentration of test compounds combined with ceftazidime (8 μg/mL) for bacteriostasis [4] | The minimum concentration of test compounds combined with ceftazidime (8 μg/mL) for bacteriostasis [5] | The minimum concentration of test compounds combined with ceftazidime (8 μg/mL) for bacteriostasis [6] | The minimum concentration of test compounds combined with ceftazidime (8 μg/mL) for bacteriostasis [7] | The minimum concentration of test compounds combined with ceftazidime (8 μg/mL) for bacteriostasis [8] | The minimum concentration of test compounds combined with imipenem (4 μg/mL) for bacteriostasis [9] | The minimum concentration of test compounds combined with imipenem (4 μg/mL) for bacteriostasis [10] | The minimum concentration of test compounds combined with imipenem (4 μg/mL) for bacteriostasis [11] | The minimum concentration of test compounds combined with imipenem (4 μg/mL) for bacteriostasis [12] | The minimum concentration of test compounds combined with imipenem (4 μg/mL) for bacteriostasis [13] | The minimum concentration of test compounds combined with imipenem (4 μg/mL) for bacteriostasis [14] | The minimum concentration of test compounds combined with imipenem (4 μg/mL) for bacteriostasis [15] | The minimum concentration of test compounds combined with imipenem (4 μg/mL) for bacteriostasis [16] |
| --- | --- | --- | --- | --- | --- | --- | --- | --- | --- | --- | --- | --- | --- | --- | --- | --- |
| N=C(N)NCCNCCc1cc([C@@H]2CC3(CC3)[C@@H]3CN2C(=O)N3OS(=O)(=O)O)no1 [Example 53, (1R,4S)-4-(5-(2-((2-guanidinoethyl)amino)ethyl)isoxazol-3-yl)-6-oxo-5,7-diazaspiro [bicyclo[3.2.1]octane-2,1′-cyclopropan]-7-yl sulfate] | C (C: 16-128 μg/mL) | A (A: <8 μg/mL) | A (A: <8 μg/mL) | A (A: <8 μg/mL) | B (B: 8-16 μg/mL) | A (A: <8 μg/mL) | A (A: <8 μg/mL) | B (B: 8-16 μg/mL) | C (C: 16-128 μg/mL) | A (A: <8 μg/mL) | A (A: <8 μg/mL) | A (A: <8 μg/mL) | A (A: <8 μg/mL) | A (A: <8 μg/mL) | A (A: <8 μg/mL) | A (A: <8 μg/mL) |
| N[C@H]1CC[C@@H](c2nnc([C@@H]3CC4(CC4)[C@@H]4CN3C(=O)N4OS(=O)(=O)O)o2)C1 [Example 17, (1R,4S)-4-(5-((1R,3S)-3-aminocyclopentyl)-1,3,4-oxadiazol-2-yl)-6-oxo-5,7-diazaspiro [bicyclo[3.2.1]octane-2,1′-cyclopropan]-7-yl sulfate] | C (C: 16-128 μg/mL) | A (A: <8 μg/mL) | A (A: <8 μg/mL) | A (A: <8 μg/mL) | A (A: <8 μg/mL) | A (A: <8 μg/mL) | A (A: <8 μg/mL) | B (B: 8-16 μg/mL) | B (B: 8-16 μg/mL) | A (A: <8 μg/mL) | A (A: <8 μg/mL) | A (A: <8 μg/mL) | A (A: <8 μg/mL) | A (A: <8 μg/mL) | A (A: <8 μg/mL) | A (A: <8 μg/mL) |
| O=C1N2C[C@H](N1OS(=O)(=O)O)C1(CC1)C[C@H]2c1cc(CNC2CNC2)on1 [Example 48, (1R,4S)-4-(5-((azetidin-3-ylamino)methyl)isoxazol-3-yl)-6-oxo-5,7-diazaspiro[bicycle [3.2.1]octane-2,1′-cyclopropan]-7-yl sulfate] | C (C: 16-128 μg/mL) | A (A: <8 μg/mL) | A (A: <8 μg/mL) | A (A: <8 μg/mL) | B (B: 8-16 μg/mL) | A (A: <8 μg/mL) | A (A: <8 μg/mL) | B (B: 8-16 μg/mL) | C (C: 16-128 μg/mL) | A (A: <8 μg/mL) | A (A: <8 μg/mL) | A (A: <8 μg/mL) | A (A: <8 μg/mL) | A (A: <8 μg/mL) | A (A: <8 μg/mL) | A (A: <8 μg/mL) |
| CN(CCc1cc([C@@H]2CC3(CC3)[C@@H]3CN2C(=O)N3OS(=O)(=O)O)no1)C(=N)N [Example 37, (1R,4S)-4-(5-(2-(1-methylguanidino)ethyl)isoxazol-3-yl)-6-oxo-5,7-diazaspiro[bicycle [3.2.1]octane-2,1′-cyclopropan]-7-yl sulfate] | C (C: 16-128 μg/mL) | A (A: <8 μg/mL) | A (A: <8 μg/mL) | B (B: 8-16 μg/mL) | B (B: 8-16 μg/mL) | A (A: <8 μg/mL) | A (A: <8 μg/mL) | C (C: 16-128 μg/mL) | C (C: 16-128 μg/mL) | A (A: <8 μg/mL) | A (A: <8 μg/mL) | A (A: <8 μg/mL) | A (A: <8 μg/mL) | A (A: <8 μg/mL) | A (A: <8 μg/mL) | B (B: 8-16 μg/mL) |
